Measured values reported in patent US8492391B2, “Substituted 6-(2-hydroxybenzylamino)purine derivatives, their use as medicaments and compositions containing these derivatives” (Univerzita Palackeho V Olomouci, priority 2009, dated 2013).
Entries after “also recorded” stand apart in the source; their conditions may differ.

Experiments:
[1] = system: p53, p21^WAF1, Mcl-1 in MCF-7 cells; experiment: Immunoblotting of p53, p21WAF1 and Mcl-1 in MCF-7 cells; format: cell-based, human; settings: MCF7, 24 h, concentration dependent, immunoblotting
Description: (§1) For immunoblotting, cell were detached with rubber policeman and washed three times with ice-cold PBS and lysed in buffer (50 mM Tris, pH 7.4, 250 mM NaCl, 5 mM EDTA, 50 mM NaF, 1 mM Na3VO4, 1% Nonidet P40) containing mixture of protease and phosphatase inhibitors (Sigma-Aldrich, USA). 20 μg of total proteins were separated by SDS-polyacrylamide gel electrophoresis (SDS-PAGE) and transferred onto nitrocellulose membranes. Membranes were blocked in 5% milk and 0.1% Tween 20 in PBS and probed overnight with specific monoclonal antibodies or rabbit polyclonal sera. Primary antibodies specific for p53 (DO-1, in house), p21^WAF1 (118, in house), PARP-1 (2C10, Sigma-Aldrich St Louis, Mo., USA), Mcl-1 (S-19, Santa Cruz, USA), all used at 1 μg/ml. All primary antibodies were diluted in PBS containing 5% powdered milk; 0.1% Tween 20. Peroxidase conjugated rabbit anti-mouse immunoglobulin or porcine anti-rabbit immunoglobulin antisera (DAKO, Denmark) were used as the secondary antibodies and visualised with ECL reagents (Amersham-Pharmacia, Little Chalfont, UK).
The induction of p53 protein was apparent in 4 hrs but enhanced level of p21^WAF1 protein was observed only 12 hours after treatment with compound 128 (FIG. 5). The periods of time 12 and 24 hrs were chosen, since the level of protein expression reached a steady state.

p53 in RPMI-8226 cells = experiment: Immunoblotting in RPMI-8226 cells with temperature-sensitive p53 (E285K) at permissive and restrictive temperature; format: cell-based, human; settings: RPMI-8226 cells, 30° C. versus restrictive temperature
Description: as §1, with “Primary antibodies specific for p53 (DO-1, in house), p21^WAF1 (118, in house), PARP-1 (2C10, Sigma-Aldrich St Louis, Mo., USA), Mcl-1 (S-19, Santa Cruz, USA), all used at 1 μg/ml.” left out
Then, we also determined effect of the compounds on the cell lines expressing some temperature-sensitive mutants of p53. For example, in BT474 and RPMI-8226 cells bearing temperature-sensitive mutant of p53 (E285K), p53 protein switches between mutant and wild-type conformation in a temperature-dependent manner. At restrictive (37° C.) temperature mutated p53 protein is expressed, while after shift to a permissive (30° C.) temperature p53 is folded correctly and functional. To analyze the functional involvement of p53 in the efficiency of the treatment with the compounds, we cultivated RPMI-8226 cells independently at two different temperatures (restrictive or permissive), and exposed them to increasing doses of selected compounds. The cell lysates were prepared and the levels of cell cycle regulators were analysed by immunoblotting.

β-adrenergic receptors = experiment: Modulation of the activity of β-adrenergic receptors (isoproterenol-induced cAMP synthesis in C6 glioma); format: cell-based; settings: rat C6 glioma, cAMP synthesis induced by 5 μM (−) isoproterenol, 30 min, simultaneous addition
Description: Mechanism of action of novel compounds is presented on FIG. 2. […] Incubation was at 37° C. in a humidified atmosphere. Assays were performed in the logaritmic growth phase at a density of 2.5×10^5 cells/cm^2. Intracellular cAMP synthesis was induced by addition of 5 μM (−) isoproterenol. After 30 min incubation at 37° C. the medium was removed and the cellular amount of cAMP determined using the cAMP-enzyme immunoassay kit of Amersham. The I50 is determined from a dose-response curve in duplicate. The effect of several novel substituted 6-(2-hydroxybenzylamino)purine derivatives was measured after simultaneous addition with isoproterenol.
As P2Y1-like and A2 purinergic receptors, negatively and positively coupled to adenylate cyclase respectively, are present on rat C6 glioma. It has to be determined if the modulation of the synthesis of cAMP is due to inhibition of the activation of β-adrenergic receptors by isoproterenol are due to activation of purinergic receptors.

p53 = experiment: p53-dependent transcription, β-galactosidase reporter in Arn8 cells; format: cell-based, human; design: key to p53 (effect): induction of p53 protein: ++: very strong; +: weak; −: no effect
From the text: Protein p53, accumulated in nuclei upon treatment by the compounds, then leads to trans-activation of natural cell cycle inhibitor p21^WAF1, further blocking the cell cycle. […] This allows qualitative as well as quantitative measurement of CDK inhibitors-induced p53 transcriptional activity via β-galactosidase assay. Then, the effect will be verified in treated cells by immunoblotting of proteins expressed under the control of p53. β-galactosidase activity of human melanoma cell line Arn8 was determined as described. […] Alternatively, β-galactosidase activity was quantified by measuring fluorescence of methylumbelliferyl-β-D-galactopyranoside cleavage product. Cell lines established from the human breast carcinoma (MCF-7) and the human melanoma (Arn8) cell lines were cultured in Dubecco's Modified Eagle Medium (DMEM) supplemented with 10% foetal bovine serum.
Effects of prepared compounds on activation of p53 protein were analysed in human melanoma cell line Arn8. […] The total β-galactosidase activity in Arn8 cells was quantified using a fluorimetric assay.

[2] = system: C-terminal domain of RNA polymerase II (serine 2 and serine 5 phosphorylation); experiment: Immunoblotting of RNA polymerase II CTD phosphorylation (CDK9 activity in cells), MCF-7; format: cell-based, human; settings: MCF-7 cells
Description: Effect of compounds on CDK9 activity in cells was monitored by site-specific phosphorylations of C-terminal domain of RNA polymerase II, a substrate of CDK9, by means of immunoblotting. For immunoblotting, cell were detached with rubber policeman and washed three times with ice-cold PBS and lysed in buffer (50 mM Tris, pH 7.4, 250 mM NaCl, 5 mM EDTA, 50 mM NaF, 1 mM Na3VO4, 1% Nonidet P40) containing mixture of protease and phosphatase inhibitors (Sigma-Aldrich, USA). 20 μg of total proteins were separated by SDS-polyacrylamide gel electrophoresis (SDS-PAGE) and transferred onto nitrocellulose membranes. Membranes were blocked in 5% milk and 0.1% Tween 20 in PBS and probed overnight with specific monoclonal antibodies or rabbit polyclonal sera. Primary antibodies specific for RNA polymerase II (all from Santa Cruz Biotechnology, California, USA) included: (i) N-20 used at 1 μg/ml, (ii) H14, specific for form phosphorylated at phosphoserine 5, used at 6 μg/ml and (iii) H5, specific for form phosphorylated at phosphoserine 2 used at 4 μg/ml. […] All primary antibodies were diluted in PBS containing 5% powdered milk; 0.1% Tween 20. Peroxidase conjugated rabbit anti-mouse immunoglobulin or porcine anti-rabbit immunoglobulin antisera (DAKO, Denmark) were used as the secondary antibodies and visualised with ECL reagents (Amersham-Pharmacia, Little Chalfont, UK). […]

Compound: CC[C@H](CO)Nc1nc(NCc2ccccc2)c2ncn(C(C)C)c2n1 [ROSC, roscovitine, reference compound]
- expression of p53, p21^Waf1 and Mcl-1 [1]: accumulation of tumor suppressor protein p53, expression of p53-regulated CDK inhibitor p21^Waf1 and downregulation of antiapoptotic protein Mcl-1
- expression of anti-apoptotic protein Mcl-1 (p53 in RPMI-8226 cells): suppressed more efficiently at 30 °C
- EFFECT (modulation of the activity of β-adrenergic receptors) (β-adrenergic receptors): inactive
- p53 (effect): induction of p53 protein (p53; Arn8 cells stable transfected with a β-galactosidase reporter gene): ++
- activation of p53-dependent transcription (p53; Arn8 reporter cell line, β-galactosidase reporter activity): proved to activate p53-dependent transcription
- levels of serine 2 and serine 5 phosphorylation of RNA polymerase II CTD [2]: substantially reduced; also recorded: is inhibited
